The values that follow come from article PMC3577359 (Biochemistry, 2013).

For one data set, the target named is holo–AusA (Staphylococcus aureus, UniProt A0A0H3JX00). Conditions: for kcat/KM, fold lower than that of L-Tyr: fixed saturating L-Val, ATP, NADPH.
For another data set, the target named is AusA A2 domain (Staphylococcus aureus, UniProt A0A0H3JX00). Briefly: ATP–PPi exchange kinetic parameters of AusA, A2 domain. The class given is biochemical.
Another data set addresses AusA A1 domain (Staphylococcus aureus, UniProt A0A0H3JX00). Description: ATP–PPi exchange kinetic parameters of AusA, A1 domain. The class given is biochemical.
For the next data set, the target named is AusA A1/A2 (Staphylococcus aureus, UniProt A0A0H3JX00). Description: ATP–PPi exchange kinetic parameters of AusA, A1/A2 aggregate. The class given is biochemical.
For data set [1], the system named is holo–AusA reductase domain. The class given is biochemical, Staphylococcus aureus. The following applies: for Aureusimine-A Formation kobs / NADPH Consumption kobs: ATP; for Aureusimine-A Formation kobs: LC-MS.
The target of the next data set is A1–T1 (Staphylococcus aureus, UniProt A0A0H3JX00). Briefly: ATP–PPi exchange assay, inhibition of A1–T1 didomain. In kind it is biochemical.
The next data set deals with AusA (A1–T1–C–A2–T2–R) (Staphylococcus aureus, UniProt A0A0H3JX00). The class given is biochemical.
Another data set concerns the target A2–T2–R (Staphylococcus aureus, UniProt A0A0H3JX00). Briefly: ATP–PPi exchange assay, inhibition of A2–T2–R tridomain. In kind it is biochemical.
Another data set relates to calpain. The following applies: cited from earlier work.
For data set [2] the following is noted: cited from earlier work.
The next data set relates to CC[C@H](C)[C@H](N)C(=O)O. Briefly: ATP–PPi exchange kinetic parameters of AusA, A1 domain. In kind it is biochemical, Staphylococcus aureus. The following applies: other: varied amino acid, non-varied ATP 3 mM; apparent; pH 8.0; 37.0 °C.
The subject of the next data set is CC(C)[C@H](N)C(=O)O. The data set is described as above. In kind it is biochemical, Staphylococcus aureus. The following applies: other: varied amino acid, non-varied ATP 3 mM; apparent; pH 8.0; 37.0 °C.
Another data set concerns CC(C)C[C@H](N)C(=O)O. Description: ATP–PPi exchange kinetic parameters of AusA, A1/A2 aggregate. The class given is biochemical, Staphylococcus aureus. The following applies: other: non-varied ATP 3 mM; aggregate of A1 and A2; pH 8.0; 37.0 °C.
The test system of data set [3] is Nc1ncnc2c1ncn2[C@@H]1O[C@H](COP(=O)(O)OP(=O)(O)OP(=O)(O)O)[C@@H](O)[C@H]1O. Briefly: ATP–PPi exchange kinetic parameters of AusA, A2 domain. In kind it is biochemical, Staphylococcus aureus. Conditions: other: varied ATP, non-varied L-Phe 30 mM; pH 8.0; 37.0 °C.
The test system of another data set is N[C@@H](Cc1ccccc1)C(=O)O. The description is as above. In kind it is biochemical, Staphylococcus aureus. Conditions: other: varied amino acid, non-varied ATP 3 mM; apparent; pH 8.0; 37.0 °C.
For data set [4], the system named is N[C@@H](Cc1ccc(O)cc1)C(=O)O. Described as above. The class given is biochemical, Staphylococcus aureus. Conditions: other: varied amino acid, non-varied ATP 3 mM; apparent; pH 8.0; 37.0 °C.
For data set [5], the system named is Nc1ccc(C[C@H](N)C(=O)O)cc1. The description is as above. The class given is biochemical, Staphylococcus aureus. Conditions: other: varied amino acid, non-varied ATP 3 mM; apparent; pH 8.0; 37.0 °C.
Data set [6] relates to Nc1ncnc2c1ncn2[C@@H]1O[C@H](COP(=O)(O)OP(=O)(O)OP(=O)(O)O)[C@@H](O)[C@H]1O. Description: purified protein, by the assay type. Conditions: other: ATP varied, pH 8.0.
Where [7] appears, read: substrates L-Val, NADPH (no L-Tyr).

“And” between values parts separate entries of the source, which are not always exact repeats. Equal entries are not always repeated. Where two headings read alike, the source gives them in different places.

Turning to `Nc1ccc(C[C@H](N)C(=O)O)cc1` [L-4Aph, L-4-aminophenylalanine], the “kcat/KM, fold lower than that of L-Tyr” value on holo–AusA turned out to be 17 fold. Besides, on AusA A2 domain, the “decrease in kcat relative to L-Tyr” value worked out at 30% and the “increase in KM relative to L-Tyr” value came out at 31 fold.
As for `CC[C@H](C)[C@H](N)C(=O)O` [L-Ile], the “exchange rate, fold lower than with L-Val” value at AusA A1 domain (in the presence of Phe-AMS) is listed as roughly 10 fold.
`CC(C)C[C@H](N)C(=O)O` [L-Leu]: the “kcat/KM, fold lower than that of L-Tyr” value on holo–AusA was found to be 302 fold. The “kcat/KM, fold less than the best substrates” value at AusA A1/A2 was “more than 200 fold”.
For the compound `N[C@@H](Cc1ccccc1)C(=O)O` [L-Phe], the “kcat/KM, fold lower than that of L-Tyr” value on holo–AusA turned out to be 2.8 fold.
Consider `CC(C)[C@H](N)C(=O)O` [L-Val, L-Valine], for which the “kcat/KM, fold greater than L-Ile” value at AusA A1 domain is 49 fold.
`NC(=O)C1=CN([C@@H]2O[C@H](COP(=O)(O)OP(=O)(O)OC[C@H]3O[C@@H](n4cnc5c(N)ncnc54)[C@H](O)[C@@H]3O)[C@@H](O)[C@H]2O)C=CC1` [NADH]: in data set [1] (data not shown), the “cofactor use by AusA” value is reported as “unable to use”.
As for `Nc1ncnc2c1ncn2[C@@H]1O[C@H](COS(=O)(=O)NC(=O)[C@@H](N)Cc2ccccc2)[C@@H](O)[C@H]1O` [Phe-AMS, 5′-O-[N-(phenylalanyl)sulfamoyl]adenosine], in [1] (L-Tyr reaction, data not shown), the “consumption of NADPH with the A2-specific inhibitor added” value is reported as “not observed”. Also, the results for the Ki on A1–T1, on AusA (A1–T1–C–A2–T2–R) and on A2–T2–R were greater than 100000 nM, 0.8 ± 0.5 nM and less than 4 nM, respectively. The “inhibition of A1–T1” value on A1–T1 (up to 100 μM) was “little inhibition”. Also, the “effect on amino acid-dependent ATP–PPi exchange activity” value on AusA (A1–T1–C–A2–T2–R) (100 μM Phe-AMS, with L-Phe, L-4Aph, L-Tyr and L-Met) is on record as “eliminates the enzymatic activity”. At A2–T2–R, the “selectivity factor (A2 over A1–T1)” value is recorded as > 10^4.
`CC(C)[C@H](N)C(=O)NS(=O)(=O)OC[C@H]1O[C@@H](n2cnc3c(N)ncnc32)[C@H](O)[C@@H]1O` [Val-AMS, 5′-O-[N-(valinyl)sulfamoyl]adenosine]: the Ki at A1–T1 was 63 ± 5 nM; at AusA (A1–T1–C–A2–T2–R), 44 ± 7 nM; at A2–T2–R it was 10000 nM. Also, the “selectivity factor Ki(A2-T2-R)/Ki(A1-T1)” value at A1–T1 was found to be 158. Further, the “activity reduction relative to the uninhibited control” value on AusA (A1–T1–C–A2–T2–R) (100 μM Val-AMS, with L-Tyr, L-Phe, L-4Aph and L-Leu, off-target inhibition of A2) is reported as “more than 2 fold”. Further, the “effect on amino acid-dependent ATP–PPi exchange activity” value at AusA (A1–T1–C–A2–T2–R) (100 μM Val-AMS, with L-Val, L-Ile, L-Cle, L-Ala, L-Cys, L-Tle and L-Met) is listed as “eliminated”.
In the case of `CC(C)c1ncc(Cc2ccc(O)cc2)[nH]c1=O` [compound 1, aureusimine-A], the “Aureusimine-A Formation kobs” value in data set [1] (substrates L-Tyr, NADPH (no L-Val)) was 0 min⁻¹; in data set [1] (setting [7]) it was 0 min⁻¹; in data set [1] (substrates L-Val, L-Tyr, NADPH, listed as Aureusimine-A), 0.28 ± 0.01 min⁻¹; in data set [1] (substrates L-Val, L-Tyr, NADPH, listed as aureusimine-A) it was 0.28 min⁻¹.
Take `CC(C)c1ncc(Cc2ccccc2)[nH]c1=O` [compound 2, aureusimine-B]: the calpain inhibition activity in the data set with calpain is ~ 1 μM. Besides, in [2], the antibacterial activity entry was “no antibacterial activity was observed”.
In the case of “AusA A1 domain (Staphylococcus aureus subsp. aureus Mu50)”, in the data set on CC[C@H](C)[C@H](N)C(=O)O, the Km is 11.9 ± 0.9 mM, the kcat was found to be 0.565 ± 0.0183 s⁻¹ and the kcat/Km came out at 47 ± 4 M⁻¹ s⁻¹. Besides, in the data set on CC(C)[C@H](N)C(=O)O, the Km stood at 3.3 ± 0.1 mM, the kcat turned out to be 7.683 ± 0.05 s⁻¹ and the kcat/Km amounted to 2330 ± 72 M⁻¹ s⁻¹.
Take “AusA A1/A2 (Staphylococcus aureus subsp. aureus Mu50)”: in the data set on CC(C)C[C@H](N)C(=O)O, the Km stood at 24 ± 3 mM; the kcat amounted to 0.248 ± 0.0167 s⁻¹; the kcat/Km was 10 M⁻¹ s⁻¹ and 10.3 M⁻¹ s⁻¹.
As for “AusA A2 domain (Staphylococcus aureus subsp. aureus Mu50)”, the Km in [3] is on record as 3.0 ± 0.5 mM; in the data set with N[C@@H](Cc1ccccc1)C(=O)O, 2.1 ± 0.1 mM; in [4], 1.0 ± 0 mM; in data set [5] it was 31 ± 1 mM. Moreover, the kcat in data set [3] amounted to 1.05 ± 0.117 s⁻¹; with N[C@@H](Cc1ccccc1)C(=O)O, 0.675 ± 0.01 s⁻¹; in data set [4], 2.15 ± 0.0167 s⁻¹; in [5] it was 1.53 ± 0.0333 s⁻¹. The kcat/Km in [3] was determined as 350 ± 70 M⁻¹ s⁻¹; in the data set on N[C@@H](Cc1ccccc1)C(=O)O, 321 ± 16 M⁻¹ s⁻¹; in data set [4], 2150 ± 17 M⁻¹ s⁻¹; in [5], 49 ± 2 M⁻¹ s⁻¹.
On holo–AusA (at 0.1 mM NADPH, L-Val, L-Tyr, ATP non-varied), NADPH had a kobs of 0.39 min⁻¹. Moreover, the “NADPH Consumption kobs” value was 0 min⁻¹ in data set [1] (setting [7]); 2.01 min⁻¹ and 2.01 ± 0.05 min⁻¹ in [1] (substrates L-Val, L-Tyr, NADPH, 80 nM holo–AusA, ambient temperature).
As for “holo–AusA (Staphylococcus aureus subsp. aureus Mu50)”, the Km in data set [6] (L-Leu as the non-varied amino acid) is 9.7 mM; in data set [6] (L-Tyr as the non-varied amino acid), 0.1 mM.
